# Experimental data: patent publication US20020146823A1, “Method for promoting hematopoietic and mesenchymal cell proliferation and differentiation” (The University of Southern California, priority 1997, published 2002)
# Key:
# [1] = tested on: Murine Peritoneal Macrophages; assay: Phagocytic capability of murine peritoneal macrophages (opsonized yeast ingestion); format: cell-based, C57B1/6 mice
# Procedure: Resident peritoneal macrophages have very little phagocytic activity. Exposure of macrophages to inflammatory or activating agents will increase this macrophage function. Resident peritoneal macrophages were harvested from C57B1/6 mice or Sprague Dawley rats and resuspended at a concentration of 1×10^6 cells/ml in phosphate buffered saline (PBS). Five separate 0.5 ml cell aliquots were placed on a glass coverslip in a 35 mm petri dish. Prior to incubation, either 0.5 ml of PBS, AII, or AII analogues or fragments at between 1-1000 ug/ml final concentration was added to the individual cover slips. The dishes containing the cover slips were then incubated at 37° C. for 4 hours, after which the cover slips were washed 3 to 6 times with PBS. Opsonized yeast particles (Sigma Chemical Co.) (yeast opsonized with adult serum from the same species as that under study) were added to the cover slips and incubated for 2 hours, after which the cover slips were again washed with PBS and inverted onto a glass slide. The number of macrophages that ingested yeast and the number of yeast per macrophage ingested was then determined microscopically. At least 100 macrophages per coverslip were counted. The data from this study are summarized in Tables 3 and 4 and FIGS. 1 and 2.
# rat MSC = assay: Rat mesenchymal stem cell proliferation in bone marrow cultures; format: cell-based, Sprague Dawley rats; settings: 1 to 100 μg/ml
# Procedure: These studies were conducted to determine the effect that AII would have on the proliferation of MSC. Bone marrow cells were harvested from the femur and tibia of female Sprague Dawley rats by flushing the bones with Dulbecco's Minimal Essential Medium-High Glucose (“DMEM-HG”) with a syringe and an 18 gauge needle. These cells were cultured in 24 well plates at 5×10^3 cells/mm^2 in DMEM-HG containing selected lots of fetal calf serum (FCS) and antibiotics (complete medium) at 37° C. incubator containing 5% CO2 in air. Twenty-four hours after the initiation of the cultures the medium and nonadherent cells were aspirated and fresh medium was added. To each of these several wells, complete medium with (1 to 100 μg/ml) or without AII was added. The migration of cells from the clones and their proliferation was followed by microscopic examination. Every 4 days the old medium was removed and fresh medium was added to the cultures. These studies were conducted to determine the effect that inclusion of All analogues and fragments in the cell culture of MSC would have on the proliferation of these cells. Bone marrow cells were harvested from the femur and tibia of female Sprague Dawley rats by flushing the bones with Dulbecco's Minimal Essential Medium-High Glucose (“DMEM-HG”) with a syringe and an 18 gauge needle. […]
# [2] = tested on: murine mesenchymal stem cells; assay: GM-CSF secretion by mouse mesenchymal stem cells (ELISA); format: cell-based, C57B1/6 mice; settings: 0.01 to 100 μg/ml; 24, 48 or 72 hours
# Procedure: One factor whose production is induced during differentiation of mesenchymal stromal cells is granulocyte-macrophage-colony stimulating factor (GM-CSF). Therefore, the effect of AII on the differentiation of mesenchymal cells was assessed by the production of colony stimulating factors, specifically GM-CSF, into the culture supernatant.
# Bone marrow cells were harvested from the femur and tibia of C57B1/6 mice (Battin and Kingdom, Gilroy, Calif.) with saline containing 2% fetal calf serum. Thereafter, the red blood cells were lysed by brief exposure to a hypotonic ammonium chloride solution. The nucleated cells were then resuspended in 3 ml of […] phosphate buffered saline (PBS; pH 7.2) and rapidly layered over 7 ml of Percoll (70% Percoll gradient separation). This combination of nucleated bone marrow cells and Percoll were centrifuged at 1800 rpm for 20 minutes. After centrifugation, the cells in the upper 25% of the Percoll gradient were harvested and washed 3 times with PBS to remove excess Percoll. The cells were then resuspended at 4×10^5 cells/ml in alpha minimal essential medium containing 10% horse serum, 10% fetal calf serum and 5×10^−5 M 2-mercaptoethanol. […]
# After all samples were collected, the level of GM-CSF in the supernatant was measured by Quantikine ELISA (R & D Systems, Minneapolis, Minn.) according to the manufacturer's instructions.
substance,measurement,setting,value
"Asp-Arg-Val-Tyr-Ile-His-Pro-Phe (DRVYIHPF; printed: Asp-Arg-Val-Tyr-Ile-His-Pro-Phe) [AII, octapeptide present in humans and other species; known pressor agent, commercially available]","# Macrophages with Yeast, Yeast # 0",[1]; AII 10 μg/ml,100
same,"# Macrophages with Yeast, Yeast # 7-9",[1]; AII 10 μg/ml,0
same,"# Macrophages with Yeast, Yeast # 0",[1]; AII 100 μg/ml,100
same,"# Macrophages with Yeast, Yeast # 7-9",[1]; AII 100 μg/ml,0
same,% Ingesting,[1]; AII 100 μg/ml,16.7%
same,"# Macrophages with Yeast, Yeast # 0",[1]; AII 1000 μg/ml,100
same,"# Macrophages with Yeast, Yeast # 7-9",[1]; AII 1000 μg/ml,0
same,% Ingesting,[1]; AII 1000 μg/ml,25.6%
same,phagocytic capability of peritoneal macrophages,[1]; exposure to 10 μg/ml or greater,tremendously increased
same,% phagocytic,[1]; highest concentration,over 25%
same,"yeast observed per macrophage, on average",[1]; highest concentration,~1
same,increase in the number of macrophages able to phagocytose,[1]; highest concentration vs resident population,25 fold
same,number of MSC,rat MSC; all time points examined,increase in the number of MSC in a concentration dependent manner
same,number of sites from which MSC were migrating (CFU) and size (number of cells) of colonies formed,rat MSC; complete medium with serum,significantly increased
same,production of GM-CSF,[2],induced an increase
